Where two headings read alike, the source gives them in different places.
Legend:
[1] = test system: cap-dependent translation in rabbit reticulocyte lysate (RRL); assay: inhibition of cap-dependent translation in rabbit reticulocyte lysate (RRL); type: biochemical
Method: After determining the affinity for eIF4E and susceptibility to DcpS, we evaluated the analogs as inhibitors of protein translation in rabbit reticulocyte lysates (RRL). To enable better assessment of how these two factors influenced inhibitory properties, we performed two sets of experiments. In the first set, cap analogs were added to RRL along with luciferase-encoding reporter mRNA followed by a protein activity (luminescence) readout after 1 h, whereas in the second set cap analogs were additionally preincubated in RRL for 1 h prior to addition of mRNA. Based on previously reported findings, we expected that in the second experimental setup, cap analogs susceptible to DcpS would lose their inhibitory potency, whereas compounds resistant to DcpS would remain similarly active.
The ability of the N7-benzyl cap analogues to inhibit cap-dependent translation was assayed in a rabbit reticulocyte lysate (RRL) system. Two sets of experiments were performed. In both variants, in vitro translation reactions (10 μL total volume) contained a tested cap analog (inhibitor) and an in vitro transcribed, ARCA-capped mRNA encoding Gaussia luciferase at 1 μg/mL final concentration. In experimental variant A, cap analogues at concentrations in the range of 0 to 64 μM and mRNA were added to the reaction mixture at the same time. Reactions were incubated at 30 °C for 60 min and then stopped by freezing in liquid nitrogen. In experimental variant B, the cap analogues were added at concentrations in the range of 0 to 160 μM. Reactions were pre-incubated at 30 °C for 60 min prior to addition of mRNA; after addition of mRNA incubation was continuous at 30 °C for 60 min and then stopped by freezing in liquid nitrogen. To detect luminescence from Gaussia luciferase, 50 μL of 10 ng/mL h-coelenterazine (NanoLight, Norman, OK, USA) in PBS was added to 10 μL of RRL and the luminescence was measured with a Synergy H1 (BioTek, Winooski, VT, USA) microplate reader.

[2] = molecular target: eukaryotic translation initiation factor 4E (eIF4E) (Mus musculus, UniProt P63073); assay: pyrene-probe fluorescent competitive-binding assay (PyFLINT-B) for cap analog-eIF4E; conditions: for Kd: pyrene-based high-throughput competition assay, 30 °C, KD calculated from EC50, read-out: KD Cap-eIF4E ± SD; for EC50: Table S2; for effect of the N7 substituent on eIF4E binding (in words): compared to m^7GpppG / 1a or unmodified counterpart
Chain of eukaryotic translation initiation factor 4E (eIF4E) (P63073 whole entry): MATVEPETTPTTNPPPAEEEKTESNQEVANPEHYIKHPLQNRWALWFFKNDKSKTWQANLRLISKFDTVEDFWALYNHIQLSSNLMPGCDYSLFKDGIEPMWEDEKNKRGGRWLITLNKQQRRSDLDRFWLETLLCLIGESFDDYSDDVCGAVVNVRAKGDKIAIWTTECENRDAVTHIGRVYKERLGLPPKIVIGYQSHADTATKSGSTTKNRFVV
From the text: High affinity for eIF4E is a desirable feature of cap analogs designed for modulating translation, either as small molecules or as a part of mRNA. Thus, we studied how different substituents at the N7-position affected eIF4E-cap interaction. To this end, we first determined the affinity of m^7GpppG and Bn^7GpppG (1a) using time-synchronized fluorescence quenching titration, a very precise and well-established, but low-throughput method. Next, to evaluate the whole set of the synthesized compounds (1a–1r), we used a high-throughput competitive-binding assay based on a pyrene-labeled fluorescent probe. From this assay we determined relative affinities of the compounds represented by half-effective concentrations (EC50) (Figure 3A–C), which were then used to calculate dissociation constant (KD) values for cap analog–eIF4E complexes using previously reported equations (Table 2, Figure 3D).
To determine the dissociation constants of the library of N7-benzylated dinucleotide 5′ cap analogs for translation initiation factor 4E, a fluorescent competitive-binding assay (PyFLINT-B) was applied as previously described. The experiments were performed on a Synergy™ H1 plate reader in 96-well, black, non-binding assay plates. Each well contained an appropriate buffer (50 mM Hepes/KOH pH 7.2, 100 mM KCl and 0.5 mM EDTA), pyrene probe m^7Gp5C4Py (10 nM), substrate (in half-logarithmic dilutions from 850 μM to 0.03 μM for compound 1m and from 100 μM to 0.003 μM for m^7GpppG and the rest of the compounds) and protein eIF4E (75 nM). The m^7Gp5C4Py was synthesized as describer earlier. The pyrene probe was dissolved in water and concentration was determined spectrometrically at 345 nm using the extinction coefficient (21,000 M^−1 cm^−1). The eIF4E protein was centrifuged after defrosting (5 min, 4 °C, 10k rcf) and its concentration was determined spectrometrically at 280 nm using the extinction coefficient (52,940 M^−1 cm^−1). The reaction mixtures were preincubated (15 min, 300 rpm, 30 °C). All measurements were performed at 30 °C and the fluorescence detection at 345 nm excitation and 378 nm emission was recorded.
To determine EC50 values, GraphPad Prism 9.1.2 software was used. To fit the curves to the obtained data we used the following formula:(1) Y=Bottom+ Top−Bottom/1+ X/EC50 where: X, cap analog (ligand) concentration; EC50, concentration of the cap analog resulting in half-maximal response from the fluorescent probe–protein complex; Bottom, minimal signal from the negative control, which contains only the free probe; Top, maximal signal from the positive control, the mixture of the protein and the fluorescent probe.
The dissociation constants KD were then calculated using the equation described by Nikolovska-Coleska et al.:(2) KD=EC50−Pt+PL50KD_probe/L50+1/L50/KD_probe+P0/KD_probe+1 where: EC50, concentration of the cap analog resulting in half-maximal response from the fluorescent probe–protein complex; [Pt], total protein concentration; [PL]50, concentration of the probe–protein complex at 50% inhibition; KD_probe, dissociation constant of the complex between the fluorescent probe and the protein; [L]50, probe concentration at 50% inhibition; [P]0, free protein concentration at 0% inhibition.

[3] = RRL, cap analog and mRNA added at the same time (no pre-incubation), 60 min, 30 °C, read-out: Translation Inhibition IC50
[4] = cap analog incubated in RRL for 1 h prior to adding mRNA, read-out: Translation Inhibition IC50 (value in brackets) (converted)

Structure (SMILES): Nc1nc(O)c2c(n1)n([C@@H]1O[C@H](COP(=O)(O)OP(=O)([O-])OP(=O)(O)OC[C@H]3O[C@@H](n4cnc5c(=O)[nH]c(N)nc54)[C@H](O)[C@@H]3O)[C@@H](O)[C@H]1O)c[n+]2Cc1ccccc1 [1a, Bn^7GpppG]
- IC50 [1, 3]: 7.4 ± 1.4 µM
- IC50 [1, 4]: 9.6 µM
- Kd [2]: 0.217 ± 0.036 µM

Structure (SMILES): Cc1cccc(C[n+]2cn([C@@H]3O[C@H](COP(=O)(O)OP(=O)([O-])OP(=O)(O)OC[C@H]4O[C@@H](n5cnc6c(=O)[nH]c(N)nc65)[C@H](O)[C@@H]4O)[C@@H](O)[C@H]3O)c3nc(N)nc(O)c32)c1 [1c, 3-MeBn^7GpppG]
- IC50 [1, 3]: 6.6 ± 0.8 µM
- IC50 [1, 4]: 8.2 µM
- EC50 [2]: 3.7 µM
- Kd [2]: 0.319 ± 0.055 µM

Structure (SMILES): CC(C)c1ccc(C[n+]2cn([C@@H]3O[C@H](COP(=O)(O)OP(=O)([O-])OP(=O)(O)OC[C@H]4O[C@@H](n5cnc6c(=O)[nH]c(N)nc65)[C@H](O)[C@@H]4O)[C@@H](O)[C@H]3O)c3nc(N)nc(O)c32)cc1 [1e, 4-iPrBn^7GpppG]
- IC50 [1, 3]: 15.2 ± 3.1 µM
- EC50 [2]: 6.2 µM
- effect of the N7 substituent on eIF4E binding (in words) [2]: KD increased more than double
- Kd [2]: 0.534 ± 0.1 µM

Structure (SMILES): Nc1nc(O)c2c(n1)n([C@@H]1O[C@H](COP(=O)(O)OP(=O)([O-])OP(=O)(O)OC[C@H]3O[C@@H](n4cnc5c(=O)[nH]c(N)nc54)[C@H](O)[C@@H]3O)[C@@H](O)[C@H]1O)c[n+]2Cc1ccc(F)cc1 [1g, 4-F-Bn^7GpppG]
- IC50 [1, 3]: 6 ± 0.9 µM
- IC50 [1, 4]: 21.4 µM
- EC50 [2]: 3.1 µM
- Kd [2]: 0.261 ± 0.054 µM

Structure (SMILES): Nc1nc(O)c2c(n1)n([C@@H]1O[C@H](COP(=O)(O)OP(=O)([O-])OP(=O)(O)OC[C@H]3O[C@@H](n4cnc5c(=O)[nH]c(N)nc54)[C@H](O)[C@@H]3O)[C@@H](O)[C@H]1O)c[n+]2Cc1ccc(Cl)cc1 [1h, 4-Cl-Bn^7GpppG]
- IC50 [1, 3]: 18.7 ± 3 µM
- IC50 [1, 4]: 18.7 ± 3.6 µM
- EC50 [2]: 2.6 µM
- Kd [2]: 0.221 ± 0.037 µM

Structure (SMILES): Nc1nc(O)c2c(n1)n([C@@H]1O[C@H](COP(=O)(O)OP(=O)([O-])OP(=O)(O)OC[C@H]3O[C@@H](n4cnc5c(=O)[nH]c(N)nc54)[C@H](O)[C@@H]3O)[C@@H](O)[C@H]1O)c[n+]2Cc1ccc(Br)cc1 [1i, 4-Br-Bn^7GpppG]
- IC50 [1, 3]: 6.4 ± 1 µM
- IC50 [1, 4]: 22.2 µM
- EC50 [2]: 2 µM
- Kd [2]: 0.172 ± 0.026 µM

Structure (SMILES): Nc1nc(O)c2c(n1)n([C@@H]1O[C@H](COP(=O)(O)OP(=O)([O-])OP(=O)(O)OC[C@H]3O[C@@H](n4cnc5c(=O)[nH]c(N)nc54)[C@H](O)[C@@H]3O)[C@@H](O)[C@H]1O)c[n+]2Cc1ccc(F)c(F)c1 [1k, 3,4-di-F-Bn^7GpppG]
- IC50 [1, 3]: 8.2 ± 1.1 µM
- IC50 [1, 4]: 21.4 µM
- EC50 [2]: 5.7 µM
- Kd [2]: 0.489 ± 0.077 µM

Structure (SMILES): Nc1nc(O)c2c(n1)n([C@@H]1O[C@H](COP(=O)(O)OP(=O)([O-])OP(=O)(O)OC[C@H]3O[C@@H](n4cnc5c(=O)[nH]c(N)nc54)[C@H](O)[C@@H]3O)[C@@H](O)[C@H]1O)c[n+]2Cc1ccc(C(F)(F)F)cc1 [1l, 4-CF3-Bn^7GpppG]
- IC50 [1, 3]: 9.7 ± 2 µM
- IC50 [1, 4]: 40 µM
- Kd [2]: 0.293 ± 0.043 µM

Structure (SMILES): Nc1nc(O)c2c(n1)n([C@@H]1O[C@H](COP(=O)(O)OP(=O)([O-])OP(=O)(O)OC[C@H]3O[C@@H](n4cnc5c(=O)[nH]c(N)nc54)[C@H](O)[C@@H]3O)[C@@H](O)[C@H]1O)c[n+]2Cc1ccc([N+](=O)[O-])cc1 [1n, 4-NO2-Bn^7GpppG]
- IC50 [1, 3]: 28.2 ± 7.5 µM
- EC50 [2]: 4.3 µM
- effect of the N7 substituent on eIF4E binding (in words) [2]: accepted by the protein
- Kd [2]: 0.367 ± 0.071 µM

Structure (SMILES): CO[C@@H]1[C@H](O)[C@@H](COP(=O)(O)OP(=O)([O-])OP(=O)(O)OC[C@H]2O[C@@H](n3cnc4c(=O)[nH]c(N)nc43)[C@H](O)[C@@H]2O)O[C@H]1n1c[n+](Cc2ccccc2)c2c(O)nc(N)nc21 [1q, Bn^7GmpppG]
- IC50 [1, 3]: 3.7 ± 0.5 µM
- IC50 [1, 4]: 8.2 µM
- EC50 [2]: 2 µM
- effect of the N7 substituent on eIF4E binding (in words) [2]: twofold increase in cap-binding affinity
- Kd [2]: 0.171 ± 0.025 µM

Structure (SMILES): CO[C@@H]1[C@H](O)[C@@H](COP(=O)(O)OP(=O)([O-])OP(=O)(O)OC[C@H]2O[C@@H](n3cnc4c(=O)[nH]c(N)nc43)[C@H](O)[C@@H]2O)O[C@H]1n1c[n+](Cc2ccc(Cl)cc2)c2c(O)nc(N)nc21 [1r, 4-Cl-Bn^7GmpppG]
- IC50 [1, 3]: 6 ± 0.9 µM
- EC50 [2]: 1.6 µM
- effect of the N7 substituent on eIF4E binding (in words) [2]: twofold increase in cap-binding affinity
- Kd [2]: 0.132 ± 0.02 µM

Structure (SMILES): Cn1c[n+]([C@@H]2O[C@H](COP(=O)(O)OP(=O)([O-])OP(=O)(O)OC[C@H]3O[C@@H](n4cnc5c(=O)[nH]c(N)nc54)[C@H](O)[C@@H]3O)[C@@H](O)[C@H]2O)c2nc(N)[nH]c(=O)c21 [m^7GpppG, reference compound]
- IC50 [1, 3]: 11.4 ± 2.4 µM
- IC50 [1, 4]: 30.1 µM
- EC50 [2]: 2.7 ± 0.3 µM
- Kd [2]: 0.229 ± 0.037 µM

Reference: article PMC8623273, “Novel N7-Arylmethyl Substituted Dinucleotide mRNA 5′ cap Analogs: Synthesis and Evaluation as Modulators of Translation” (Pharmaceutics, 2021)
